Experimental data: patent publication US20130310379A1, “MODULATORS OF METHYL MODIFYING ENZYMES, COMPOSITIONS AND USES THEREOF” (CONSTELLATION PHARMACEUTICALS, priority 2010, published 2013)
pIC50: −log10 of the molar value.

Experiments:
[1] = biological target: EZH2 (Homo sapiens, UniProt Q15910); experiment: EZH2 assay: rPRC2 with biotinylated oligonucleosome substrates and 3H SAM, FlashPlate scintillation counting, IC50; assay type: biochemical; settings: rPRC2, biotinylated oligonucleosome substrates, 3H SAM; read-out: EZH2 IC50
EZH2, sequence (Q15910 whole entry): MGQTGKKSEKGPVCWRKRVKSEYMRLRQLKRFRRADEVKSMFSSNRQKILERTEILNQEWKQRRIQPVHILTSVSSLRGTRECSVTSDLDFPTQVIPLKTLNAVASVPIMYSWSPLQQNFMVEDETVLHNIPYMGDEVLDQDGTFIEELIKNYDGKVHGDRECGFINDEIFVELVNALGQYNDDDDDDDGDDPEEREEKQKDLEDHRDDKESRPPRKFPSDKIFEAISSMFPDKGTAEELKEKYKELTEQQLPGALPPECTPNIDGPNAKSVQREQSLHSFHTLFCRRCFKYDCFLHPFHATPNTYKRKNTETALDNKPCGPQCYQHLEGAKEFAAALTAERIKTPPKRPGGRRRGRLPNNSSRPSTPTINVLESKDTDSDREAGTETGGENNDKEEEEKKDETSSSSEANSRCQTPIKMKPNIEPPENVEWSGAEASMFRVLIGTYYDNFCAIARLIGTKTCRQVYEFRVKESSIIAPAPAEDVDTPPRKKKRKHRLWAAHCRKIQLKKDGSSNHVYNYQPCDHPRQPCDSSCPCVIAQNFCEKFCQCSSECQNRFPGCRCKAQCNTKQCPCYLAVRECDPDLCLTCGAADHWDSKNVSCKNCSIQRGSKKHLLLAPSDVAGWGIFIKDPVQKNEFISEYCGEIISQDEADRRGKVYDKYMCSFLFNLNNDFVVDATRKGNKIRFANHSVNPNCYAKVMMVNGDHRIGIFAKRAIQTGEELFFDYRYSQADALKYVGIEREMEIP
EZH2, sequence (O75530 whole entry partner): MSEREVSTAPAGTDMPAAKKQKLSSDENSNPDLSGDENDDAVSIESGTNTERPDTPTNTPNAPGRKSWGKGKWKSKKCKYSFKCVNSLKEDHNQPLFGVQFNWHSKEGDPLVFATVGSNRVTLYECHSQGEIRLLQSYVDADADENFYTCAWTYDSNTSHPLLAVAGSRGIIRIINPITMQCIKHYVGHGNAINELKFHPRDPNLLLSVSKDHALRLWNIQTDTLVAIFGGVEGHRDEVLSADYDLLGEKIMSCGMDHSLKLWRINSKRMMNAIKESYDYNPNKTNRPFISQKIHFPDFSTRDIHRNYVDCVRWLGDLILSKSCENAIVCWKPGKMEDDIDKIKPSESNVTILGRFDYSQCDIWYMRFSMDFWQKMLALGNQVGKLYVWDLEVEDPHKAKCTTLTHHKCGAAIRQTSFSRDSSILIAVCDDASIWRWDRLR
EZH2, sequence (Q15022 whole entry partner): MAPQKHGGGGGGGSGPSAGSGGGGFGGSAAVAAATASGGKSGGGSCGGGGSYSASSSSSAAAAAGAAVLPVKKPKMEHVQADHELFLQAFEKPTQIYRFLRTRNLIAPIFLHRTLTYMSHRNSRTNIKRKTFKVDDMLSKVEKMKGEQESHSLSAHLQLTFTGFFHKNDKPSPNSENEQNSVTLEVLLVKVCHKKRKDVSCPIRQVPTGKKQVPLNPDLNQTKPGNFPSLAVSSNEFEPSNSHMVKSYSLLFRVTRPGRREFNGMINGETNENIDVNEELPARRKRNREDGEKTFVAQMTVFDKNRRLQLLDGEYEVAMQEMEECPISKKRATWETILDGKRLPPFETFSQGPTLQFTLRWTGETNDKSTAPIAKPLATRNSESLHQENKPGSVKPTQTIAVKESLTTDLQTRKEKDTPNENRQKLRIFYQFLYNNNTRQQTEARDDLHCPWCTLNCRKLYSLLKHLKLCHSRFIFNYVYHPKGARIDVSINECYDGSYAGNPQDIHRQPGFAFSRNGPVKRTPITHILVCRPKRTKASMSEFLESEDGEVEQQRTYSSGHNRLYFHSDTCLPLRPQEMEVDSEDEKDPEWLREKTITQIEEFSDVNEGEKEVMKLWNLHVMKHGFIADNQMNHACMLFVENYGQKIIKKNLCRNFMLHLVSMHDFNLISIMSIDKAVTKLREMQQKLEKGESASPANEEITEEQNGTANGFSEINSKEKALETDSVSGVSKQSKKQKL
In short: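 rPRC2 (2 nM EZH2) pre-incubated 20 min with compound (80 to 0.16 uM, ten 2-fold steps), then 60 min reaction with 0.2 uM 3H SAM, 0.2 uM biotinylated oligonucleosomes, 3.6 uM H3K27me3 peptide in Tris pH 8.5. SAH/EDTA quench; 4-parameter IC50 fit.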

[2] = biological target: Y641N EZH2 (Homo sapiens, UniProt Q15910, Y641N); experiment: Y641N EZH2 assay: performed as the EZH2 assay, using reconstituted H3K27Me2 oligonucleosomes as substrate; assay type: biochemical
Y641N EZH2, sequence (Q15910 whole entry Y641N): as the sequence (Q15910 whole entry) above, with Y641N counted along it
Y641N EZH2, sequence (O75530 whole entry partner): as the sequence (O75530 whole entry partner) above
Y641N EZH2, sequence (Q15022 whole entry partner): as the sequence (Q15022 whole entry partner) above
Description: Assays were carried out by mixing rPRC2 together with biotinylated oligonucleosome substrates in the presence of the radio-labeled enzyme co-factor, S-adenosyl-L-methionine (^3H SAM) (Perkin Elmer) and monitoring the enzymatically mediated transfer of tritiated methyl groups from ^3H SAM to histone lysine residues. The amount of resulting tritated methylhistone product was measured by first capturing the biotinylated oligonuclesomes in streptavidin (SAV) coated FlashPlates (Perkin Elmer), followed by a wash step to remove un-reacted ^3H SAM, and then counting on a TopCount NXT 384 well plate scintillation counter (Perkin Elmer). The final assay conditions for EZH2 were as follows: 50 mM Tris Buffer pH 8.5, 1 mM DTT, 69 uM Brij-35 detergent, 5.0 mM MgCl2, 0.1 mg/mL BSA, 0.2 uM ^3H SAM, 0.2 uM biotinylated oligonucleosomes, 3.6 uM H3K27me3 peptide and 2 nM EZH2.
Compound IC50 measurements were obtained as follows: Compounds were first dissolved in 100% DMSO as 10 mM stock solutions. […] A 12.5 uL volume of the HMT enzyme, H3K27me3 peptide and oligonucleosome substrate in assay buffer was added to each well of the assay plate using a Multidrop Combi (ThermoFisher). Compounds were pre-incubated with the enzyme for 20 min, followed by initiation of the methyltransferase reaction by addition of 12.5 uL of 3H SAM in assay buffer (final volume=25 uL). The final concentrations of compounds ranged from a top default concentration of 80 uM down to 0.16 uM in ten 2-fold dilution steps. Reactions were carried out for 60 minutes and quenched with 20 uL per well of 1.96 mM SAH, 50 mM Tris PH 8.5, 200 mM EDTA. Stopped reactions were transferred to SAV coated Flashplates (Perkin Elmer), incubated for 120 min, washed with a plate washer, and then read on the TopCount NXT (1.0 min/well) to measure the amount of methylhistone product formed during the reaction. The amount of methylhistone product was compared with the amount of product formed in the 0% and 100% inhibition control wells allowing the calculation of % Inhibition in the presence of the individual compounds at various concentrations. IC50's were computed using a 4 parameter fit non-linear curve fitting software package (XLFIT, part of the database package, ActivityBase (IDBS)) where the four parameters were IC50, Hill slope, pre-transitional baseline (0% INH), and post-transitional baseline (100% INH); with the latter two parameters being fixed to zero and 100%, respectively, by default.

Row | Structure (SMILES) | pIC50 [1] | pIC50 [2]
1 | CC1(C)CC(NC(=O)c2ccc(Oc3cccc(C4CCCO4)c3C#N)c(Cl)c2)CC(C)(C)N1 (centres unmarked) [Compound I-560] | > 5.30 | < 4.10
2 | CC1(C)CC(NC(=O)c2ccc(Oc3cccc(-c4ccnnc4)c3C#N)c(Cl)c2)CC(C)(C)C1=O [Compound I-564] | > 5.30 | < 4.10
3 | CC1(C)CC(NC(=O)c2ccc(Oc3ccccc3C#N)c(Br)c2)CC(C)(C)N1 [Compound I-186] | > 5.30 | 4.70 to 5.30
4 | CC1(C)CC(NC(=O)c2ccc(Oc3cccc(-c4cn[nH]c4)c3C#N)c(Br)c2)CC(C)(C)N1 [Compound I-347] | > 5.30 | > 5.30
5 | CC1(C)CC(N2CCc3cc(Oc4ccccc4C#N)c(Cl)cc3C2=O)CC(C)(C)N1 [Compound I-163] | 4.10 to 4.70 | < 4.10
6 | CN(C(=O)c1ccc(Oc2ccccc2C#N)c(Cl)c1)C1CC(C)(C)NC(C)(C)C1 [Compound I-344] | 4.70 to 5.30 | < 4.10
7 | CC1(C)CC(NC(=O)c2ccc(Oc3cccc(-c4ccncc4Cl)c3C#N)c(Cl)c2)CC(C)(C)N1 [Compound I-586] | > 5.30 | > 5.30
8 | CC1(C)CC(NC(=O)c2ccc(Oc3cccc(-c4ccnnc4)c3C#N)c(Cl)c2)CC(C)(C)C1O (centres unmarked) [Compound I-548] | > 5.30 | 4.10 to 4.70
9 | CC1(C)CC(N2Cc3cc(Oc4ccccc4C#N)c(Cl)cc3C2=O)CC(C)(C)N1 [Compound I-356] | < 4.10 | < 4.10
10 | CC1(C)CC(NC(=O)c2ccc(Oc3cccc(N4CCOCC4=O)c3)c(Cl)c2)CC(C)(C)N1 [Compound I-397] | 4.70 to 5.30 | < 4.10
11 | CC1(C)CC(NC(=O)c2ccc(Oc3cccc(Cl)c3C#N)c(Cl)c2)CC(C)(C)N1 [Compound I-256] | > 5.30 | > 5.30
12 | CC(Oc1cccc(Oc2ccc(C(=O)NC3CC(C)(C)NC(C)(C)C3)cc2Cl)c1C#N)C(N)=O (centres unmarked) [Compound I-326] | 4.70 to 5.30 | < 4.10
13 | CC1(C)CC(NC(=O)c2ccc(Oc3cccc(NCC(N)=O)c3)c(Cl)c2)CC(C)(C)N1 [Compound I-304] | 4.70 to 5.30 | < 4.10
14 | CC1(C)CC(NC(=O)c2ccc(Oc3cccc(-c4cncc(C#N)c4)c3C#N)c(Cl)c2)CC(C)(C)N1 [Compound I-571] | > 5.30 | > 5.30
15 | CC1(C)CC(NC(=O)c2ccc(Oc3cccc(-c4cn[nH]c4)c3C#N)c(F)c2)CC(C)(C)N1 [Compound I-398] | > 5.30 | 4.70 to 5.30
16 | COc1cccc(Oc2ccc(C(=O)NC3CC(C)(C)NC(C)(C)C3)cc2Cl)c1C#N [Compound I-333] | > 5.30 | 4.70 to 5.30
17 | N#Cc1ccccc1Oc1ccc(C(=O)NC2CCSCC2)cc1Cl [Compound I-427] | < 4.10 | < 4.10
18 | CC1(C)CC(NC(=O)c2ccc(Oc3cccc(N4CCNCC4)c3)c(Cl)c2)CC(C)(C)N1 [Compound I-493] | 4.10 to 4.70 | < 4.10
19 | CC1(C)CC(NC(=O)c2ccc(-n3ncc4ccccc43)c(Cl)c2)CC(C)(C)N1 [Compound I-327] | > 5.30 | 4.70 to 5.30
20 | CC1(C)CC(NC(=O)c2ccc(Oc3cccc(Br)c3C#N)c(Cl)c2)CC(C)(C)N1 [Compound I-254] | > 5.30 | > 5.30
21 | CNCc1cccc(Oc2ccc(C(=O)NC3CC(C)(C)NC(C)(C)C3)cc2Cl)c1C#N [Compound I-381] | > 5.30 | 4.10 to 4.70

Next, values leading:

Row | pIC50 [1] | pIC50 [2] | Structure (SMILES)
22 | > 5.30 | > 5.30 | CCc1cccc(Oc2ccc(C(=O)NC3CC(C)(C)NC(C)(C)C3)cc2Br)c1C#N [Compound I-369]
23 | > 5.30 | > 5.30 | Cc1cnccc1-c1cccc(Oc2ccc(C(=O)NC3CC(C)(C)NC(C)(C)C3)cc2Cl)c1C#N [Compound I-572]
24 | > 5.30 | 4.10 to 4.70 | Cc1cc(C(=O)NC2CC(C)(C)NC(C)(C)C2)ccc1Oc1cccc(-c2ccccc2)c1C#N [Compound I-260]
25 | > 5.30 | > 5.30 | CC1(C)CC(NC(=O)c2ccc(Oc3cccc(-c4ccncc4)c3C#N)c(Cl)c2)CC(C)(C)N1 [Compound I-339]
26 | 4.10 to 4.70 | 4.10 to 4.70 | CC1(C)CC(NC(=O)c2ccc(COc3cccc(-c4ccc5[nH]ccc5c4)c3)cc2)CC(C)(C)N1 [Compound I-183]
27 | 4.10 to 4.70 | 4.10 to 4.70 | CCc1cccc(Oc2ccc(C(=O)NC3CC(C)(C)NC(C)(C)C3)cc2Cl)c1-c1cccnc1 [Compound I-343]
28 | > 5.30 | > 5.30 | CC1(C)CC(NC(=O)c2ccc(Oc3cccc(-c4ccc(N)nc4)c3C#N)c(Cl)c2)CC(C)(C)N1 [Compound I-312]
29 | 4.70 to 5.30 | 4.10 to 4.70 | CC1(C)CC(NC(=O)c2ccc(COc3cccc(Br)c3)c(Br)c2)CC(C)(C)N1 [Compound I-216]
30 | > 5.30 | 4.70 to 5.30 | CC1(C)CC(NC(=O)c2ccc(Oc3cccc(-c4cnccn4)c3C#N)c(Cl)c2)CC(C)(C)N1 [Compound I-428]
31 | > 5.30 | > 5.30 | CC1(C)CC(NC(=O)c2ccc(Oc3cccc(-c4ccnc(N)c4)c3C#N)c(Cl)c2)CC(C)(C)N1 [Compound I-375]
32 | < 4.10 | 4.10 to 4.70 | CC1(C)CC(NC(=O)c2ccc(Cn3ccnc3)cc2)CC(C)(C)N1 [Compound I-404]
33 | 4.10 to 4.70 | 4.10 to 4.70 | CN(C)c1ccc(-c2cccc(OCc3ccc(C(=O)NC4CC(C)(C)NC(C)(C)C4)cc3)c2)cn1 [Compound I-154]
34 | 4.70 to 5.30 | < 4.10 | CC1(C)CC(NC(=O)c2ccc(Oc3cccc(-c4ccc(N)nc4)c3)cc2)CC(C)(C)N1 [Compound I-228]
35 | > 5.30 | 4.70 to 5.30 | CC1(C)CC(NC(=O)c2ccc(Oc3cccc4cnccc34)c(Cl)c2)CC(C)(C)N1 [Compound I-324]
36 | 4.10 to 4.70 | < 4.10 | CNCc1cccc(Oc2ccc(C(=O)NC3CC(C)(C)NC(C)(C)C3)cn2)c1 [Compound I-415]
37 | > 5.30 | > 5.30 | CCc1cccc(Oc2ccc(C(=O)NC3CC(C)(C)NC(C)(C)C3)cc2C)c1C#N [Compound I-266]
38 | > 5.30 | > 5.30 | Cc1cc(-c2cccc(Oc3ccc(C(=O)NC4CC(C)(C)NC(C)(C)C4)cc3Cl)c2C#N)ccn1 [Compound I-584]
39 | 4.10 to 4.70 | < 4.10 | CC1(C)CC(NC(=O)c2ccc(C(=O)c3ccccc3)cc2)CC(C)(C)N1 [Compound I-431]
40 | > 5.30 | > 5.30 | CC1(C)CC(NC(=O)c2ccc(Oc3cccc(-c4ccccn4)c3C#N)c(Cl)c2)CC(C)(C)N1 [Compound I-367]
41 | > 5.30 | > 5.30 | CC1(C)CC(NC(=O)c2ccc(Oc3cccc(-c4ccnc(O)c4)c3C#N)c(Cl)c2)CC(C)(C)N1 [Compound I-583]
42 | 4.10 to 4.70 | < 4.10 | CC1(C)CC(NC(=O)c2ccc(COc3ccccc3Br)cc2)CC(C)(C)N1 [Compound I-185]
43 | > 5.30 | 4.10 to 4.70 | CC1(C)CC(NC(=O)c2ccc(Oc3ccccc3-c3cccnc3)c(Cl)c2)CC(C)(C)N1 [Compound I-207]
